17 molecules from patent US11242344B2, “(4-hydroxypyrrolidin-2-yl)-heterocyclic compounds and methods of use thereof” (Genentech, Inc., priority 2017, dated 2022) can be followed below.

The target of one assay is VHL Elongin B/C complex (Homo sapiens (Human), UniProt P40337). The assay is described as follows: Fluorescence Polarization (FP) VHL Binding Assay. The conditions noted are these: VHL binding, FP assay; geometric mean where more than one measurement. The protocol: The binding of test compounds to the VHL Elongin B/C complex was measured using a fluorescence polarization tracer competition assay. The VHL/Elongin B/C protein complex used in the assay was generated as follows. The coding region for amino acids E55-D213 of human VHL with N-terminal His6 tag with a TEV-protease cleavage site was co-expressed with Elongin B (residues M1-Q118) and Elongin C (Residues M17-C112) in E. coli. […] The purified VHL/Elongin B/C complex was dialyzed into formulation buffer: 20 mM Bis-Tris pH7.0, 150 mM NaCl, 1 mM DTT. A VHL fluorescence polarization probe (prepared in Example 91), consisted of a VHL ligand coupled to carboxytetramethylrhodamine (TAMRA); […] Compounds were prepared as a serial dilution in DMSO at a concentration 25-fold higher than the final desired concentration and acoustically dispensed (400 nl) into a ProxiPlate-384 Plus F, Black 384-shallow well Microplate (Part Number 6008260). DMSO was dispensed into wells designated for “VHL control” (without compound) wells. The “Assay Buffer” consisted of 50 mM Tris pH 8.0, 120 mM NaCl, 0.005% Nonidet P-40, and 1% DMSO (v/v). Assay Buffer containing […] VHL Elongin B/C complex was prepared and 5 μl dispensed using a BioRapTR (Beckman Coulter) into each well of the assay plate. Assay Buffer was also dispensed into “no VHL control” wells using the same method. A “pre-assay” fluorescence measurement was made using an Infinite® M1000 (Tecan) plate reader (Excitation 530 nm, Emission 574 nm, Bandwidth 10 nm). Assay Buffer containing 3.34 nM of the VHL FP probe was prepared in Assay Buffer and 5 μl dispensed into each well of the assay plate using a BioRapTR (Beckman Coulter). The final VHL/Elongin B/C protein concentration is 2.64 nM and the final probe concentration is 1.67 nM. Assay plates were briefly centrifuged and incubated for 1 hour at room temperature. “Post-assay” fluorescence polarization measurements were made as described for the “pre-assay” fluorescence measurement. Fluorescence polarization was calculated for each sample; taking into account the “pre-assay” fluorescence measurements and subtracting the fluorescence signal of the compound/VHL only (“pre-assay”) measurements from the “post-assay” fluorescence polarization measurements, for each plane of polarization. The data were analyzed using Genedata Screener software and normalized to the “no VHL control” and “VHL control” (without compound). IC50 values were calculated using a four parameter curve fit (Robust method).
A general note: Fluorescence polarisation rises when a labelled molecule tumbles more slowly, as on binding a larger partner.

Assay [1] has as its target VHL co-expressed with Elongins B and C (Homo sapiens (Human), UniProt P40337). The assay is described as follows: Surface Plasmon Resonance Assay. The class given is binding. The conditions noted are these: SPR measured VHL affinity; geometric mean where more than one measurement. The protocol: Using a Biacore T200, […] tagged VHL co-expressed with Elongins B and C were immobilized to a Biacore SA chip in running buffer without DMSO. Compounds were tested individually at varying concentrations in running buffer (50 mM HEPES pH 7.2, 150 mM NaCl, 0.5 mM TCEP, 0.001% Tween 20, 0.2% PEG3350, 2% DMSO) at 20° C. Sensorgrams were run in order from low to high concentration using a flow rate of 80 μL/min. Association and disassociation times were varied depending on the estimated potency of the compound tested. […] Galdeano et al, J. Med. Chem. 2014, 57, 8657-8663, herein incorporated by reference) which retained greater than 75% of the activity over the course of the run. Analysis of the binding curves and determination of the kinetic parameters were done using evaluation software (Version 2.0, Biacore).
A general note: In SPR one partner is held on a chip, and binding of the other changes the refractive index at the surface.

In assay [2] the target is NanoLuc VHL fusion protein (Homo sapiens (Human), UniProt P40337). Description: VHL HEK-293 BRET Assay (NanoBRET Target Engagement). The class given is cell-based. The conditions noted are these: geometric mean where more than one measurement. Here is the method: The VHL NanoBRET™ Target Engagement Assay analyzes the apparent affinity of test compounds for VHL in cells by competitive displacement of a VHL NanoBRET™ tracer reversibly bound to a NanoLuc® VHL fusion protein stably expressed in the cells. Test compounds were transferred to the assay plate (384 Well White Non-Binding Corning Assay Plates (Corning-3574)) using an Echo 555 Liquid Handler (Labcyte) in 2.5 nL increments and, as appropriate, intermediate stock concentrations of compounds, in order to prepare a titration series. 50 nL of control compound (10 mM; parental unlabeled VHL antagonist; see structure below) and 50 nL of DMSO (negative control) were dispensed into the appropriate control wells. DMSO was backfilled to a final volume of 50 nL as required. 50 nl per well of 1 mM VHL NanoBRET™ Tracer in DMSO (NanoBRET™ Tracer-PEG2-590 (see structure below)) was transferred into each well using an Echo 555 (ultimately yielding a final concentration of 1 uM). HEK 293 RT VHL-NanoLuc® stable cells were cultured in DMEM High Glucose with Pyruvate, 10% fetal bovine serum, 2 mg/mL of Geneticin Selective Antibiotic (50 mg/ml) and 2 mM HEPES (1 M). Cells were seeded in Opti-MEM (Life Technologies-11058-021), 1.7×10^5 cells/mL, 40 μl per well into the assay plate, centrifuged at 500 rpm for 30 seconds and incubated for 2 hours. Max Signal control wells consisted of DMSO only treated wells. Minimum Signal control wells contained of 10 uM parental unlabeled VHL antagonist (control compound—see structure below). 3× Complete Substrate plus Inhibitor Solution was prepared in Opti-MEM (consists of a 1:166 dilution of NanoBRET™ Nano-Glo® Substrate plus a 1:500 dilution of Extracellular NanoLuc® Inhibitor in Opti-MEM), and 20 ul was dispensed into each well of the 384-well plate and centrifuged at 1000 rpm for 1 minute, then incubated for 2 minutes at room temperature. Background Signal control wells were prepared without tracer for background correction steps. Plates were read using a PerkinElmer Envision Reader (model 2104-0020) equipped with Luminescence option (Mirror: BRET2 Enh (PE Barcode 659), Emission Filter: Omega 610LP (Barcode 504), 2nd Emission Filter: Umbelliferone 460 (Barcode 207), Measurement height: 6.5 mm, Measurement time: 1 s). The raw BRET ratio values were calculated by dividing the acceptor emission value (610 nm) by the donor emission value (460 nm) for each sample. To correct for background, the BRET ratio in the absence of tracer (average of no-tracer control samples) was subtracted from the BRET ratio of each sample. Raw BRET units were converted to milliBRET units (mBU) by multiplying each raw BRET value by 1,000. The normalized NanoBRET™ signal was calculated relative to the Max Signal control wells (DMSO treated control wells) and the Minimum Signal control wells. Percentage inhibition was calculated relative to the Minimum Signal control and Maximum Signal control wells. IC50 values were derived by four parameter curve fitting using the Robust method.
(BRET reads energy transfer from a luciferase to a nearby fluorophore.)

Sequence of VHL Elongin B/C complex (P40337 whole entry, looked up, the tested form may be a part): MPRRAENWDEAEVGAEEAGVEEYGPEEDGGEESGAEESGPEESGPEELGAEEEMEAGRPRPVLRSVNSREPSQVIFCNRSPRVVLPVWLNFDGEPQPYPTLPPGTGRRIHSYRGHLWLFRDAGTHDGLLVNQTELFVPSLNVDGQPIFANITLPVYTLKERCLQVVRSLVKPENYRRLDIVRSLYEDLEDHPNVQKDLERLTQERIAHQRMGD
Sequence of VHL Elongin B/C complex (Q15370 whole entry partner, looked up, the tested form may be a part): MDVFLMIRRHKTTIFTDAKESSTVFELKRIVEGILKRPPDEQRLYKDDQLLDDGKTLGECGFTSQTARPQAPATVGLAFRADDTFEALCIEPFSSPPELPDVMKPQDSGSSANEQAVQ
Sequence of VHL Elongin B/C complex (Q15369 whole entry partner, looked up, the tested form may be a part): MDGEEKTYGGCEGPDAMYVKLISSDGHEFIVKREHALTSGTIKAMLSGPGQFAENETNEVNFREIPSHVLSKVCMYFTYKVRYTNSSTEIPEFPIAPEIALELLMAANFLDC
Sequence of VHL co-expressed with Elongins B and C (P40337 whole entry, looked up): as the sequence (P40337 whole entry, looked up, the tested form may be a part) above
Sequence of VHL co-expressed with Elongins B and C (Q15370 whole entry partner, looked up): as the sequence (Q15370 whole entry partner, looked up, the tested form may be a part) above
Sequence of VHL co-expressed with Elongins B and C (Q15369 whole entry partner, looked up): as the sequence (Q15369 whole entry partner, looked up, the tested form may be a part) above
Sequence of NanoLuc VHL fusion protein (P40337 whole entry, looked up, the tested form may be a part): as the sequence (P40337 whole entry, looked up, the tested form may be a part) above
Sequence of NanoLuc VHL fusion protein (Q15370 whole entry partner, looked up, the tested form may be a part): as the sequence (Q15370 whole entry partner, looked up, the tested form may be a part) above
Sequence of NanoLuc VHL fusion protein (Q15369 whole entry partner, looked up, the tested form may be a part): as the sequence (Q15369 whole entry partner, looked up, the tested form may be a part) above

For orientation: IC50 means the midpoint of a concentration-inhibition curve. In general, Kd refers to the free concentration of one partner at which half of the binding sites on the other are occupied at equilibrium, for simple one-to-one binding. As to `Cc1cc([C@@H](C(=O)N2C[C@H](O)C[C@H]2C2=NOC3(CCc4ccccc43)N2)C(C)C)on1` (single isomer, unassigned) [Example 130.2], the values for the concentration for half-maximal inhibition (IC50) (at VHL Elongin B/C complex; in assay [2]) were 362 µM and 100 µM, respectively. The same molecule displayed a Kd in assay [1] of 121 µM.

As to `Cc1cc([C@@H](C(=O)N2C[C@H](O)C[C@H]2C2=NOC3(CCc4ccccc43)N2)C(C)C)on1` (single isomer, unassigned) [Example 130.1], the IC50 at VHL Elongin B/C complex stood at 96.1 µM; in assay [2], 100 µM. The molecule also registered a Kd in assay [1] of 83 µM.

`Cc1cc(C(C(=O)N2C[C@H](O)CC2C2=NC(=O)[C@](C)(c3ccc(-c4scnc4C)cc3)N2)C(C)C)sn1` (single isomer, unassigned) [Example 119.2]: the values for the half-inhibitory concentration (IC50) (at VHL Elongin B/C complex; in assay [2]) were not below 400 µM and 100 µM, respectively. In addition, binding in assay [1] was characterised by a dissociation constant (Kd) of 150 µM.

With `Cc1cc(C(C(=O)N2C[C@H](O)CC2C2=NC(=O)[C@](C)(c3ccc(-c4scnc4C)cc3)N2)C(C)C)sn1` (single isomer, unassigned) [Example 119.3], the values for the IC50 (at VHL Elongin B/C complex; in assay [2]) were 72.4 µM and 71.1 µM, respectively. The molecule also returned a dissociation constant Kd in assay [1] of 17.5 µM.

Regarding `CCN1N=C([C@@H]2C[C@@H](O)CN2C(=O)C(c2cc(C)no2)C(C)C)NC1(C)C` (single isomer, unassigned) [Example 115.1], the results for the IC50 (on VHL Elongin B/C complex; in assay [2]) were not below 400 µM and 100 µM, respectively. The molecule further displayed a Kd in assay [1] of 150 µM.

As to `Cc1ncsc1-c1ccc([C@]2(C)NC(C3C[C@@H](O)CN3C(=O)[C@H](C(C)C)N3Cc4ccccc4C3=O)=NC2=O)cc1` (single isomer, unassigned) [Example 123.1], the 50% inhibitory concentration (IC50) on VHL Elongin B/C complex is not below 400 µM; in assay [2], 100 µM. Further, the dissociation constant Kd in assay [1] was found to be 55.6 µM.

`Cc1cc([C@H](C(=O)N2C[C@H](O)C[C@H]2C2=NOC3(CCc4ccccc43)N2)C(C)C)on1` (single isomer, unassigned) [Example 130.4]: the concentration for half-maximal inhibition (IC50) at VHL Elongin B/C complex came out at 17.5 µM; in assay [2] it was 34.5 µM. Moreover, the Kd in assay [1] worked out at 4.24 µM.

With `CC/C(=C(\c1ccc(O)cc1)c1ccc(OCCN(C)C(=O)CCCOCCOc2cc(C(C(=O)N3C[C@H](O)CC3C3=NC(=O)[C@](C)(c4ccc(-c5scnc5C)cc4)N3)C(C)C)on2)cc1)c1ccccc1` (single isomer, unassigned) [Example 1003.1], the IC50 is not below 400 µM on VHL Elongin B/C complex and not below 100 µM in assay [2]. Also, in assay [1], binding was characterised by a dissociation constant (Kd) of 67.1 µM.

In the case of `Cc1cc([C@H](C(=O)N2C[C@H](O)C[C@H]2C2=NOC3(CCc4ccccc43)N2)C(C)C)on1` (single isomer, unassigned) [Example 130.3], the IC50 on VHL Elongin B/C complex is 17.6 µM; in assay [2], 16.2 µM. In assay [1], this molecule displayed a Kd of 4.69 µM.

Regarding `Cc1ncsc1-c1ccc([C@]2(C)NC(C3C[C@@H](O)CN3C(=O)C3N(S(C)(=O)=O)CCC3(C)C)=NC2=O)cc1` (single isomer, unassigned) [Example 125.3], the figures for the IC50 (on VHL Elongin B/C complex; in assay [2]) were not below 400 µM and 100 µM, respectively. The molecule further returned a Kd in assay [1] not below 150 µM.

With `Cc1cc([C@@H](C(=O)N2C[C@H](O)C[C@H]2C2=NOC3(CCCC3)N2)C(C)C)on1` [Example 127.1, (S)-1-((2S,4R)-4-hydroxy-2-(1-oxa-2,4-diazaspiro[4.4]non-2-en-3-yl)pyrrolidin-1-yl)-3-methyl-2-(3-methylisoxazol-5-yl)butan-1-one], the half-inhibitory concentration (IC50) at VHL Elongin B/C complex was not below 400 µM; in assay [2], 100 µM. In assay [1], the Kd was not below 150 µM.

With `Cc1cc(C(C(=O)N2C[C@H](O)CC2C2=NC(C)(C)C(C)(C)N2)C(C)C)on1` (stereo partly drawn) [Example 136.1, 1-((4R)-4-Hydroxy-2-(4,4,5,5-tetramethyl-4,5-dihydro-1H-imidazol-2-yl)pyrrolidin-1-yl)-3-methyl-2-(3-methylisoxazol-5-yl) butan-1-one], the 50% inhibitory concentration (IC50) at VHL Elongin B/C complex was found to be 93.6 µM; in assay [2] it was 77.1 µM. In assay [1], this molecule showed a Kd not below 150 µM.

Consider `Cc1ncsc1-c1ccc([C@]2(C)NC(C3C[C@@H](O)CN3C(=O)[C@@H](NC(=O)C3(C#N)CC3)C(C)(C)C)=NC2=O)cc1` (single isomer, unassigned) [Example 111.1], for which the IC50 is 111 µM on VHL Elongin B/C complex and not below 100 µM in assay [2]. The Kd in assay [1] is 31.8 µM.

`Cc1cc(C(C(=O)N2C[C@H](O)CC2C2=NS(=O)(=O)CN2)C(C)C)on1` (single isomer, unassigned) [Example 137.2]: the concentration for half-maximal inhibition (IC50) at VHL Elongin B/C complex was 47.3 µM; in assay [2], not below 100 µM.

With `C#Cc1cccc(Nc2ncnc3cc(OCCOC)c(OCCOCC#CC#CCOc4cc(C(C(=O)N5C[C@H](O)CC5C5=NC(=O)[C@](C)(c6ccc(-c7scnc7C)cc6)N5)C(C)C)on4)cc23)c1` (single isomer, unassigned) [Example 1004.4], the IC50 on VHL Elongin B/C complex is 6.25 µM; in assay [2], not below 100 µM.

As for `Cc1cc(C(C(=O)N2C[C@H](O)C[C@H]2C2=NO[C@](C)(c3ccc(-c4ccccc4F)cc3)N2)C(C)C)on1` (single isomer, unassigned) [Example 139.1], the IC50 at VHL Elongin B/C complex is 10 µM; in assay [2], 21.7 µM.

As for `Cc1cc([C@H](C(=O)N2C[C@H](O)CC2C2=NOC3(CCCc4ccccc43)N2)C(C)C)on1` (single isomer, unassigned) [Example 131.3], the IC50 was 19.6 µM on VHL Elongin B/C complex and 23 µM in assay [2].
